From US10724000B2, “Small molecule based conversion of somatic cells into neural crest cells” (Hoffmann-La Roche Inc., priority 2013, dated 2020)

Columns and labels:
AMPK = assay: Kinase selectivity profiling (ProfilerPro Kinase Kits); assay type: biochemical; settings: FIG. 1C
Description: (§1) Kinase Selectivity Profiling Kinase selectivity profiling was performed using ProfilerPro Kinase Kits from Caliper (PerkinElmer) according to the manufacturer's instructions.

MSK1 = target: T1, MSK1 (Homo sapiens, UniProt O75582); assay: as above; assay type: biochemical; settings: FIG. 1C
T1 construct: purchased Caliper (PerkinElmer) ProfilerPro Kinase Kits
T1 sequence (O75582 whole entry, species assumed): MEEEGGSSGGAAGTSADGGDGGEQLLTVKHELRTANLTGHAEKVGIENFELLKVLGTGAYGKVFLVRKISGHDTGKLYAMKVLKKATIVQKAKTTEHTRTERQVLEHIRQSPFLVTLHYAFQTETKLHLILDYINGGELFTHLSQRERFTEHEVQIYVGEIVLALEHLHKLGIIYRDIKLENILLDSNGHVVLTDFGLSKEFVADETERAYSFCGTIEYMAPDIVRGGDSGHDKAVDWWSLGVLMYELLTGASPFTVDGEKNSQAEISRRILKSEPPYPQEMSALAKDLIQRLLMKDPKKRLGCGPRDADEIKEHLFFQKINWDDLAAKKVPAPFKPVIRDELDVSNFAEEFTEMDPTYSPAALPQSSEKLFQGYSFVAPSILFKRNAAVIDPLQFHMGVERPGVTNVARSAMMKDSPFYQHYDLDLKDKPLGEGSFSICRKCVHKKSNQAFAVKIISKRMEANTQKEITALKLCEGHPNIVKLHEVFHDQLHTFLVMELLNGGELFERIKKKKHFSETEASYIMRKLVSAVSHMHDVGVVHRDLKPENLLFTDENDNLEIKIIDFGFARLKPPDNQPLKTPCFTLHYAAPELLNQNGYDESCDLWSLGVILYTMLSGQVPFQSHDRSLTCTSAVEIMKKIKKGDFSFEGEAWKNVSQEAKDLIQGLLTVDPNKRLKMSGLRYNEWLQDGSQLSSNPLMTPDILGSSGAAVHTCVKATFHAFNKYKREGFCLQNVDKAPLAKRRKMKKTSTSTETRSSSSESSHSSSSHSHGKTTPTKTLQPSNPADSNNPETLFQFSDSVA
Description: as §1

PKA = target: T2, PKA (Homo sapiens, UniProt P17612); assay: as above; assay type: biochemical; settings: FIG. 1C
T2 construct: purchased Caliper (PerkinElmer) ProfilerPro Kinase Kits
Description: as §1

PKGa = target: T3, PKGa (Homo sapiens, UniProt Q13976); assay: as above; assay type: biochemical; settings: FIG. 1C
T3 construct: purchased Caliper (PerkinElmer) ProfilerPro Kinase Kits
T3 sequence (Q13976 1-671): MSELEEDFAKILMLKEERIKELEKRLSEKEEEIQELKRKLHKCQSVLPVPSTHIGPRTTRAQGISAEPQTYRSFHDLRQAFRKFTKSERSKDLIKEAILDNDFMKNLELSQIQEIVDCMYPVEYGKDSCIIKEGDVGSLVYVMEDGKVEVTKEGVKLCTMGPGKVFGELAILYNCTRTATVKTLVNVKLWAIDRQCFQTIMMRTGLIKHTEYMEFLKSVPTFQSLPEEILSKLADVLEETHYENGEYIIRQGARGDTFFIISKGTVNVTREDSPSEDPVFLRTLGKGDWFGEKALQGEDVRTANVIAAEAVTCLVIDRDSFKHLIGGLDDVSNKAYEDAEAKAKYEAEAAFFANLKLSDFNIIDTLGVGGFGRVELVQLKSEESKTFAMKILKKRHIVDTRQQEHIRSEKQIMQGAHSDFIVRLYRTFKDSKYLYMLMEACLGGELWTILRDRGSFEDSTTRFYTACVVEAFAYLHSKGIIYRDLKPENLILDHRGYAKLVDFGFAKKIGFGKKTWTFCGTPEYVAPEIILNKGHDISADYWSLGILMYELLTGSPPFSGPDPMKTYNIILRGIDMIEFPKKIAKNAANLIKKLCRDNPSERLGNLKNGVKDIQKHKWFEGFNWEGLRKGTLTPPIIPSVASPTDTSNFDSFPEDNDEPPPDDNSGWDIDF
Description: as §1

ROCK2 = target: T4, ROCK2 (Homo sapiens, UniProt O75116); assay: as above; assay type: biochemical; settings: FIG. 1C
T4 construct: purchased Caliper (PerkinElmer) ProfilerPro Kinase Kits
T4 sequence (O75116 whole entry, species assumed): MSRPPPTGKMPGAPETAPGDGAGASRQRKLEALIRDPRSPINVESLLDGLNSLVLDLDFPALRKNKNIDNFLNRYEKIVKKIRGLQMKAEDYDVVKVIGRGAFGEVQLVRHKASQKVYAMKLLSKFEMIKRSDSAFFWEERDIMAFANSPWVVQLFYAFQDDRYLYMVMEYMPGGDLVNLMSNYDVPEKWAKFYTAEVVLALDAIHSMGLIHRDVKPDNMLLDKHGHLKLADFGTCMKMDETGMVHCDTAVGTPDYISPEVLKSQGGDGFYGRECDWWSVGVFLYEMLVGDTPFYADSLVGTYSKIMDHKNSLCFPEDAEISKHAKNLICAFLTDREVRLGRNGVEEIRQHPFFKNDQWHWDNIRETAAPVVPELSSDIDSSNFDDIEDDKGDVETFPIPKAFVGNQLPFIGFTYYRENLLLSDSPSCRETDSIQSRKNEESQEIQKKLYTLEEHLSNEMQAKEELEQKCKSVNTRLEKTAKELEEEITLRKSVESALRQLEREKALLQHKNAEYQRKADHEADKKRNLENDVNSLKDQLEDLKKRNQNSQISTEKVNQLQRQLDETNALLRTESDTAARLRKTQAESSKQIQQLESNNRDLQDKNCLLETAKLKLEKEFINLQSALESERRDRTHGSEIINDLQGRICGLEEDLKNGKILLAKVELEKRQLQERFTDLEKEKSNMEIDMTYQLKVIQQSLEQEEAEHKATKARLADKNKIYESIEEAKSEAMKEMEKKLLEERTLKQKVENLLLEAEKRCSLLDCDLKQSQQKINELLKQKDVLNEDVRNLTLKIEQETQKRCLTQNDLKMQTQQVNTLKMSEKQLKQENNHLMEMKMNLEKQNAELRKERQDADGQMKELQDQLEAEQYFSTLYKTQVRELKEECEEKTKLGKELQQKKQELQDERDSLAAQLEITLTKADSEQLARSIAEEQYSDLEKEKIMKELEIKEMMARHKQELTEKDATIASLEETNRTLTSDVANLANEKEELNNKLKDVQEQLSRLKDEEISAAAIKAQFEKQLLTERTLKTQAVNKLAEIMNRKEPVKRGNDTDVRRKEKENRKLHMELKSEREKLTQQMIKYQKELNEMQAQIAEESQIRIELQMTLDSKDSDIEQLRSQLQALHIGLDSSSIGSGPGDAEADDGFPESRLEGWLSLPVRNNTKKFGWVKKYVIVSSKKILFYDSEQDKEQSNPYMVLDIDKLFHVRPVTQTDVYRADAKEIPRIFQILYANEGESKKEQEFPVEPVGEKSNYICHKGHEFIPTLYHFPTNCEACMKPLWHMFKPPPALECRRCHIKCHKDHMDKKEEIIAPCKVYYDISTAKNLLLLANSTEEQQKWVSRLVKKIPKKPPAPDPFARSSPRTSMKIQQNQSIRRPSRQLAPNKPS
Description: as §1

SGK1 = target: T5, SGK1 (Homo sapiens, UniProt O00141); assay: as above; assay type: biochemical; settings: FIG. 1C
T5 construct: purchased Caliper (PerkinElmer) ProfilerPro Kinase Kits
T5 sequence (O00141 1-431): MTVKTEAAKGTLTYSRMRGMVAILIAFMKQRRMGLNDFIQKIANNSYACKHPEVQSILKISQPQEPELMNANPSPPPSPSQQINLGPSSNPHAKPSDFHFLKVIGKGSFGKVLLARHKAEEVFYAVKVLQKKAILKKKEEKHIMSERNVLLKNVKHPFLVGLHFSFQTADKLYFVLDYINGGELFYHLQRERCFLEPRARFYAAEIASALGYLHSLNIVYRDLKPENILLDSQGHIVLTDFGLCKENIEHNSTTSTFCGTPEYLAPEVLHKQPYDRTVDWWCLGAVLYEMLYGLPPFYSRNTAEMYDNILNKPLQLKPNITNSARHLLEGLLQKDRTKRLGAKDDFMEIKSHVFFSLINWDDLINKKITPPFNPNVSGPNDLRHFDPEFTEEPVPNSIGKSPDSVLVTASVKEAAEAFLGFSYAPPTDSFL
Description: as §1

ESC-NSCs = assay: Neural stem cell proliferation, ATP assay (CellTiterGlo); assay type: cell-based, human; settings: ATP assay after four days, FIG. 1A
Description: Embryonic stem cell-derived neural stem cells (ESC-NSCs) were generated as previously described using dual SMAD inhibition protocol (Chambers et al., 2009). NSCs were cultured on POL coated plates at 37° C., 5% CO2 in N2B27 supplemented with bFGF (10 ng/ml), EGF (10 ng/ml), BDNF (20 ng/ml). For Compound B identification, NSCs were seeded on POL coated plates at 21000 cells/cm^2 in N2B27. After cell attachment (4 h), compounds were added at indicated concentrations. Negative control cells were treated with DMSO. Cells were incubated for four days and subsequently the amount of ATP was determined using the CellTiterGlo® kit (Promega) according to the manufacturer's instructions.

mesenchymal stem cells = assay: Mesenchymal stem cell proliferation; assay type: cell-based; settings: FIG. 1A
[1] = tested on: SCC058 foreskin fibroblasts; assay: Sphere formation assay of fibroblasts in suspension culture; assay type: cell-based, human; settings: day 3, FIG. 1B, 1D
Description: SCC058 foreskin fibroblasts (Millipore) were cultured at 37° C. and 5% CO2 in low serum FibroGro (Millipore). For conversion, 7300 cells/cm^2 were seeded in fibroblast medium containing 1 mM Valproic acid (VPA, Sigma). Then, cells were treated for two days with 1 mM VPA, and 6 μg/ml polybrene (Millipore) and subsequently transferred to low attachment plates in NSC medium for sphere formation. NSC medium consisted of NeuroCult NS-A proliferation medium (StemCell Technologies) supplemented with Penicillin/streptomycin, bFGF (20 ng/ml), EGF (20 ng/ml), BDNF (20 ng/ml), Heparin (2 μg/ml), D114 (500 ng/ml), Jagged1 (500 ng/ml), SHH (500 ng/ml, peprotech), Ascorbic Acid (0.2 mM, Sigma), FGF8a (100 ng/ml), 10% NSC-CM (medium conditioned by ESC-NSCs), and Compound B (2 μM, Roche).
• [3R,4R]-N-{4-[4-(2-Fluoro-6-hydroxy-3-methoxy-benzoyl)-benzoyl amino]-azep+an-3-yl}-4-hydroxy-3,5-dimethyl-benzamide hydrochlorid All growth factors were from R&D systems if not indicated otherwise. To compare effects of other inhibitors, Compound B was replaced by 2 μM Dorsomorphin, 10 uM H89 (Tocris), 10 μM Y27632, or 10 μM GSK650394 (Tocris), respectively. After four days, spheres were dissociated with Accutase and single cells were seeded in low attachment plates in NSC medium supplemented with inhibitor mix comprising 500 ng/ml Noggin (peprotech), 10 μM SB431452 (Tocris), and 1 μM CP21 (Roche).

[2] = tested on: fibroblast-derived secondary spheres; assay: Attachment of secondary spheres to laminin substrate (POL); assay type: cell-based, human; settings: two hours after plating on POL; FIG. 6
Description: • [3R,4R]-N-{4-[4-(2-Fluoro-6-hydroxy-3-methoxy-benzoyl)-benzoyl amino]-azep+an-3-yl}-4-hydroxy-3,5-dimethyl-benzamide hydrochlorid All growth factors were from R&D systems if not indicated otherwise. To compare effects of other inhibitors, Compound B was replaced by 2 μM Dorsomorphin, 10 uM H89 (Tocris), 10 μM Y27632, or 10 μM GSK650394 (Tocris), respectively. After four days, spheres were dissociated with Accutase and single cells were seeded in low attachment plates in NSC medium supplemented with inhibitor mix comprising 500 ng/ml Noggin (peprotech), 10 μM SB431452 (Tocris), and 1 μM CP21 (Roche). After 3 days, secondary spheres were seeded on polyornithine-laminin (POL) coated dishes. After attachment (24 hours), medium was replaced with differentiation medium comprising N2B27 (1:1 DMEM/F12 and Neurobasal with beta-mercaptoethanol (50 μM), B27 supplement without vitamin A (1:50, Invitrogen), and N2 supplement (1:100, Invitrogen)) supplemented with antibiotics, BDNF (20 ng/ml), GDNF (20 ng/ml), Laminin ([…]), Ascorbic Acid (0.2 mM) and dibutyryl-cAMP (0.5 mM, Sigma). Every other day, 50% of medium was exchanged. For the first seven days of differentiation, medium was supplemented with the inhibitor mix.

Row | Compound | inhibition of AMPK (AMPK) | inhibition of MSK1 (MSK1) | inhibition of PKA (PKA) | inhibition of PKGa (PKGa) | inhibition of ROCK2 (ROCK2) | inhibition of SGK1 (SGK1) | proliferation of neural stem cells (ESC-NSCs) | effect on mesenchymal stem cells (proliferation) (mesenchymal stem cells) | sphere size [1] | total cell number in suspension culture [1] | attachment and migration of spheres on laminin substrate [2]
1 | COc1ccc(O)c(C(=O)c2ccc(C(=O)N[C@@H]3CCCNC[C@H]3NC(=O)c3cc(C)c(O)c(C)c3)cc2)c1F.Cl [Compound B, N-{(3R,4R)-4-[4-(2-Fluoro-6-hydroxy-3-methoxy-benzoyl)-benzoylamino]-azepan-3-yl}-4-hydroxy-3,5-dimethyl-benzamide] | over 80% | over 80% | over 80% | over 80% | over 80% | over 80% | promoted proliferation of ESC-NSCs in a dose-dependent manner | no effect | significant increase | significant increase | have attached and started to migrate
2 | O=S(=O)(NCCNC/C=C/c1ccc(Br)cc1)c1cccc2cnccc12 [Compound H89, reference compound] |  |  |  |  |  |  |  |  | increase in sphere size, albeit not at the same extent as Compound B |  | 
3 | C[C@@H](N)[C@H]1CC[C@H](C(=O)Nc2ccncc2)CC1 [Compound Y27142, reference compound] |  |  |  |  |  |  |  |  | increase in sphere size, albeit not at the same extent as Compound B |  | 
